Reference: PMC4965013, “Open Source Drug Discovery with the Malaria Box Compound Collection for Neglected Diseases and Beyond” (PLoS Pathogens, 2016)
Blank lines part the entries; values can stand above or below the molecule they belong to.

Tests used:
[1] = test system: P. falciparum 3D7 trophozoites; test: Metabolomic fingerprint profiling LC-MS; format: cell-based, Plasmodium falciparum; set-up: UDP-D-glucose / ADP-D-glucose: unit not given here; conditions: for Acetyllysine / N-acetyl-L-ornithine / N-carbamoyl-L-aspartate / NADPH / dAMP / dCMP / dTDP / dTMP / dTTP / dihydroorotate / orotate / DLH / DLS/SDL/SID / PD / PEE / PVNF / 3-phosphoglycerate / ADP-D-glucose / ATP / CDP / D-sedoheptulose-1/7-phosphate / FAD / GMP / NAD+ / NADP+ / Octoluse Bisphosphate / Pyroglutamic acid / UDP-D-glucose / UDP-D-glucuronate / UDP-N-acetyl-glucosamine / UDP / UMP / UTP / a-ketoglutarate / citrate/isocitrate / cytidine / dATP / dGMP/AMP / fumarate / glucose-1/6-phosphate / glycerate / guanine / guanosine / hypoxanthine / indole / inosine / nicotinate / ornithine / phosphoenolpyruvate / pyruvate / ribose-phosphate / sarcosine/alanine / sn-glycerol-3-phosphate / succinate/methylmalonic acid / uridine / xanthosine: S2 Table Metabolomics; for Acetyllysine: metabolite Acetyllysine; for N-acetyl-L-ornithine: metabolite N-acetyl-L-ornithine; for N-carbamoyl-L-aspartate: metabolite N-carbamoyl-L-aspartate; for NADPH: metabolite NADPH; for dAMP: metabolite dAMP; for dCMP: metabolite dCMP; for dTDP: metabolite dTDP; for dTMP: metabolite dTMP; for dTTP: metabolite dTTP; for dihydroorotate: metabolite dihydroorotate; for orotate: metabolite orotate; for DLH: peptide DLH; for DLS/SDL/SID: peptide DLS/SDL/SID; for PD: peptide PD; for PEE: peptide PEE; for PVNF: peptide PVNF; for 3-phosphoglycerate: metabolite 3-phosphoglycerate; for ADP-D-glucose: metabolite ADP-D-glucose; for ATP: metabolite ATP; for CDP: metabolite CDP; for CDP / D-sedoheptulose-1/7-phosphate / GMP / Octoluse Bisphosphate / UDP / UMP / UTP / citrate/isocitrate / dGMP/AMP / fumarate / glucose-1/6-phosphate / glycerate / guanine / guanosine / inosine / pyruvate / sarcosine/alanine / succinate/methylmalonic acid / uridine / xanthosine: change in metabolite level after compound treatment; for D-sedoheptulose-1/7-phosphate: metabolite D-sedoheptulose-1/7-phosphate; for FAD: metabolite FAD; for GMP: metabolite GMP; for NAD+: metabolite NAD+; for NADP+: metabolite NADP+; for Octoluse Bisphosphate: metabolite Octoluse Bisphosphate; for Pyroglutamic acid: metabolite Pyroglutamic acid; for UDP-D-glucose: metabolite UDP-D-glucose; for UDP-D-glucuronate: metabolite UDP-D-glucuronate; for UDP-N-acetyl-glucosamine: metabolite UDP-N-acetyl-glucosamine; for UDP: metabolite UDP; for UMP: metabolite UMP; for UTP: metabolite UTP; for a-ketoglutarate: metabolite a-ketoglutarate; for citrate/isocitrate: metabolite citrate/isocitrate; for cytidine: metabolite cytidine; for dATP: metabolite dATP; for dGMP/AMP: metabolite dGMP/AMP; for fumarate: metabolite fumarate; for glucose-1/6-phosphate: metabolite glucose-1/6-phosphate; for glycerate: metabolite glycerate; for guanine: metabolite guanine; for guanosine: metabolite guanosine; for hypoxanthine: metabolite hypoxanthine; for indole: metabolite indole; for inosine: metabolite inosine; for 2_3-Diphosphoglyceric acid / 4-phosphopantothenate / 6-phospho-D-gluconate / FMN / IMP / Pyrophosphate / Sedoheptoluse bisphosphate / cyclic-AMP / glutathione disulfide / lactate / myo-inositol: metabolite level change after treatment; for nicotinate: metabolite nicotinate; for ornithine: metabolite ornithine; for phosphoenolpyruvate: metabolite phosphoenolpyruvate; for pyruvate: metabolite pyruvate; for ribose-phosphate: metabolite ribose-phosphate; for sarcosine/alanine: metabolite sarcosine/alanine; for sn-glycerol-3-phosphate: metabolite sn-glycerol-3-phosphate; for succinate/methylmalonic acid: metabolite succinate/methylmalonic acid; for uridine: metabolite uridine; for xanthosine: metabolite xanthosine
[2] = test system: P. falciparum; test: EC50 listed in S2 Table Metabolomics (used to set the concentration tested); format: cell-based; conditions: Plasmodium falciparum; EC50 used for Factor_XEC50 in metabolomics; read-out: EC50_nM

EC50 [2]: 118 nM
SMILES: CCOC(=O)c1ccc2nc(-c3ccccc3)cc(O)c2c1 [MMV006457]
Acetyllysine [1]: -0.3384
N-acetyl-L-ornithine [1]: -0.3139
N-carbamoyl-L-aspartate [1]: 4.351
NADPH [1]: 0.6352
dAMP [1]: -0.4724
dCMP [1]: -0.3312
dTDP [1]: -1.515
dTMP [1]: -1.363
dTTP [1]: -1.304
dihydroorotate [1]: 4.958
orotate [1]: -1.367
DLH [1]: -0.4882
DLS/SDL/SID [1]: -0.4763
PD [1]: 0.2786
PEE [1]: -0.4235
PVNF [1]: -0.7922
3-phosphoglycerate [1]: 0.07595
ADP-D-glucose [1]: 0.02112
ATP [1]: 0.06279
CDP [1]: -1.282
D-sedoheptulose-1/7-phosphate [1]: -0.2959
FAD [1]: 0.202
GMP [1]: 0.5528
NAD+ [1]: 0.1474
NADP+ [1]: -0.1781
Octoluse Bisphosphate [1]: -0.2401
Pyroglutamic acid [1]: 0.01503
UDP-D-glucose [1]: 0.02564
UDP-D-glucuronate [1]: -0.1377
UDP-N-acetyl-glucosamine [1]: -0.1506
UDP [1]: -1.814
UMP [1]: -1.819
UTP [1]: -1.644
a-ketoglutarate [1]: -0.2281
citrate/isocitrate [1]: -0.877
cytidine [1]: 0.9143
dATP [1]: 0.2755
dGMP/AMP [1]: -0.2048
fumarate [1]: 0.4222
glucose-1/6-phosphate [1]: 0.1449
glycerate [1]: -0.03038
guanine [1]: 0.7811
guanosine [1]: 0.4264
hypoxanthine [1]: 0.2443
indole [1]: 0.3097
inosine [1]: 0.319
2_3-Diphosphoglyceric acid [1]: -0.1036
4-phosphopantothenate [1]: -0.4551
6-phospho-D-gluconate [1]: 0.1425
FMN [1]: -0.04566
IMP [1]: 0.4558
Pyrophosphate [1]: 0.1188
Sedoheptoluse bisphosphate [1]: -0.2455
cyclic-AMP [1]: -0.04029
glutathione disulfide [1]: 0.1448
lactate [1]: 0.2927
myo-inositol [1]: -0.1285
nicotinate [1]: 0.07641
ornithine [1]: 0.3647
phosphoenolpyruvate [1]: -0.1372
pyruvate [1]: -0.1462
ribose-phosphate [1]: 0.3187
sarcosine/alanine [1]: 0.6115
sn-glycerol-3-phosphate [1]: 0.3451
succinate/methylmalonic acid [1]: -0.4755
uridine [1]: -0.2838
xanthosine [1]: -0.0194

EC50 [2]: 161 nM
SMILES: CC(C)(C)c1ccc(O)c(CNC2CCCCC2)c1 [MMV665785]
Acetyllysine [1]: -3.15
N-acetyl-L-ornithine [1]: -2.311
N-carbamoyl-L-aspartate [1]: -1.546
NADPH [1]: 0.984
dAMP [1]: -0.2403
dCMP [1]: -0.2349
dTDP [1]: -0.5512
dTMP [1]: -0.26
dTTP [1]: 0.1164
dihydroorotate [1]: -0.9762
orotate [1]: -1.456
DLH [1]: -3.579
DLS/SDL/SID [1]: -3.002
PD [1]: -3.491
PEE [1]: -3.582
PVNF [1]: -4.043
3-phosphoglycerate [1]: 0.5402
ADP-D-glucose [1]: -0.1351
ATP [1]: 0.1038
CDP [1]: 0.1776
D-sedoheptulose-1/7-phosphate [1]: 0.09578
FAD [1]: 0.3792
GMP [1]: -0.7077
NAD+ [1]: 1.206
NADP+ [1]: 0.3365
Octoluse Bisphosphate [1]: 0.02588
Pyroglutamic acid [1]: -0.2254
UDP-D-glucose [1]: 0.3073
UDP-D-glucuronate [1]: 0.153
UDP-N-acetyl-glucosamine [1]: 0.3019
UDP [1]: -0.1861
UMP [1]: -0.1897
UTP [1]: -0.0004267
a-ketoglutarate [1]: -1.327
citrate/isocitrate [1]: -0.9862
cytidine [1]: 0.6078
dATP [1]: 0.1738
dGMP/AMP [1]: -0.2591
fumarate [1]: -2.071
glucose-1/6-phosphate [1]: 0.2752
glycerate [1]: -0.524
guanine [1]: -0.6198
guanosine [1]: -0.8871
hypoxanthine [1]: -0.2777
indole [1]: -0.4001
inosine [1]: -0.2517
2_3-Diphosphoglyceric acid [1]: 0.5476
4-phosphopantothenate [1]: -0.1524
6-phospho-D-gluconate [1]: 0.3686
FMN [1]: 0.4685
IMP [1]: 0.07164
Pyrophosphate [1]: 0.2456
Sedoheptoluse bisphosphate [1]: 0.06348
cyclic-AMP [1]: -0.9854
glutathione disulfide [1]: -0.1571
lactate [1]: -0.3018
myo-inositol [1]: 0.3826
nicotinate [1]: -0.1953
ornithine [1]: -0.1957
phosphoenolpyruvate [1]: 0.4685
pyruvate [1]: -0.3246
ribose-phosphate [1]: -0.2844
sarcosine/alanine [1]: -1.431
sn-glycerol-3-phosphate [1]: -0.03786
succinate/methylmalonic acid [1]: -0.9733
uridine [1]: -0.6886
xanthosine [1]: -1.575

EC50 [2]: 25.5 nM
SMILES: CC1CN(C(=O)c2sc3ccccc3c2Cl)CC(C)O1 (stereo not drawn) [MMV020492]
Acetyllysine [1]: -0.0147
N-acetyl-L-ornithine [1]: -0.05191
N-carbamoyl-L-aspartate [1]: 0.1461
NADPH [1]: 1.076
dAMP [1]: 0.05557
dCMP [1]: 0.1257
dTDP [1]: 0.2505
dTMP [1]: 0.3742
dTTP [1]: 0.08279
dihydroorotate [1]: 0.2809
orotate [1]: 0.03682
DLH [1]: 0.1005
DLS/SDL/SID [1]: 0.08855
PD [1]: 0.1297
PEE [1]: 0.04353
PVNF [1]: 0.1047
3-phosphoglycerate [1]: 0.09132
ADP-D-glucose [1]: 0.03984
ATP [1]: 0.0738
CDP [1]: 0.1835
D-sedoheptulose-1/7-phosphate [1]: 0.08985
FAD [1]: 0.03625
GMP [1]: 0.3386
NAD+ [1]: 0.04927
NADP+ [1]: 0.004356
Octoluse Bisphosphate [1]: 0.06954
Pyroglutamic acid [1]: 0.3822
UDP-D-glucose [1]: 0.04537
UDP-D-glucuronate [1]: -0.02953
UDP-N-acetyl-glucosamine [1]: 0.08846
UDP [1]: 0.2013
UMP [1]: 0.2191
UTP [1]: 0.01852
a-ketoglutarate [1]: 0.02481
citrate/isocitrate [1]: -0.02888
cytidine [1]: -0.05556
dATP [1]: -0.009271
dGMP/AMP [1]: 0.09845
fumarate [1]: 0.08721
glucose-1/6-phosphate [1]: -0.03526
glycerate [1]: 0.2426
guanine [1]: 0.0471
guanosine [1]: 0.114
hypoxanthine [1]: -0.07881
indole [1]: 0.1523
inosine [1]: -0.03708
2_3-Diphosphoglyceric acid [1]: 0.1949
4-phosphopantothenate [1]: 0.1246
6-phospho-D-gluconate [1]: 0.07439
FMN [1]: 0.2041
IMP [1]: -0.02839
Pyrophosphate [1]: 0.1402
Sedoheptoluse bisphosphate [1]: 0.05967
cyclic-AMP [1]: 0.07392
glutathione disulfide [1]: 0.1287
lactate [1]: 0.06153
myo-inositol [1]: 0.04445
nicotinate [1]: 0.03208
ornithine [1]: -0.1593
phosphoenolpyruvate [1]: 0.09247
pyruvate [1]: -0.02843
ribose-phosphate [1]: -0.3604
sarcosine/alanine [1]: 0.3511
sn-glycerol-3-phosphate [1]: 0.4063
succinate/methylmalonic acid [1]: 0.003908
uridine [1]: 0.1407
xanthosine [1]: 0.3607
